Experiment [1] concerns bladder epithelium. Nature of the experiment: Effect of chemical agent pretreatment on adenovirus-mediated gene transfer and expression (Ad-βgal, X-gal staining). The experiment is classed as in vivo, mouse (BALB/c). The procedure:
152 female BALB/c mice were used this study.
The route of administration of the chemical agent and virus was intravesical.
3. Based on the reagent being tested, bladder pretreatment was performed as follows:
Poloxomer 407 procedure: Washed 2 times with 100 μl each. Retained the 3rd wash for 5 min and gave one additional wash. Performed 3 times PBS wash prior to virus instillation.
Poloxomer 188 procedure: Washed 2 times with 100 μl each. Retained the 3rd wash for 5 minutes and gave one additional wash. Performed 3 times PBS wash prior to virus instillation.
Lipofectamine 2000 procedure: Added 5 μl of stock Lipofectamine (1 mg/ml) to 195 μl of PBS-10% glycerol. Mixed with an equal volume of Ad-βgal virus and incubated for 15 minutes. Administered 100 μl of the mixture intravesically and retained in the bladder for 30 minutes.
Benzyl Alcohol procedure: Washed 2 times with 100 μl each. Retained the 3rd wash for 15 minutes and then gave one additional wash. Performed 3 times PBS wash prior to virus instillation.
Performed 3 times PBS wash prior to virus instillation.
Polidocanol procedure: Washed 2 times with 100 μl each. Retained the 3rd wash for 5 min and then gave one additional wash. Performed 3 times PBS wash prior to virus instillation.
DC-Cho procedure: Washed 2 times with 100 μl each. Retained the 3rd wash for 5 min and then gave one additional wash. Performed 3 times PBS wash prior to virus instillation.
0.4% HPMC 2910 procedure: No pretreatment. An equal volume of the virus was mixed with 0.8% solution of HPMC2910 and the mixture was instilled into the bladder for 30 minutes.
100 mg/ml Poly-Lysine procedure: No pretreatment. An equal volume of the virus was mixed with 100 mg/ml solution of Poly-Lysine and the mixture was instilled into the bladder for 30 minutes.
0.4% polyvinyl alcohol (PVA) procedure: No pretreatment. An equal volume of the virus was mixed with 0.8% solution of PVA and the mixture was instilled into the bladder for 30 minutes.
n-dodecyl-β-D glucopyranoside procedure: Washed 2 times with 100 μl each. Retained the 3rd wash for 5 min and then gave one additional wash. Performed 3 times PBS wash prior to virus instillation.
0.4% PVP procedure: No pretreatment. An equal volume of the virus was mixed with 0.8% solution of PVP and the mixture was instilled into the bladder for 30 min.
0.1% cholesterol-cyclodextrin reagent procedure: No pretreatment. An equal volume of the virus was mixed with 0.2% solution of Cholesterol-Cyclodextrin and the mixture was instilled into the bladder for 30 minutes.
n-dodecyl-β-D-maltoside procedure: Washed 2 times with 100 μl each. Retained the 3rd wash for 5 min and then gave one additional wash. Performed 3 times PBS wash prior to virus instillation.
Sodium salt of dodecyl benzenesulfonic acid procedure: Washed 2 times with 100 μl each. Retained the 3rd wash for 5 min and then gave one additional wash. Performed 3 times PBS wash prior to virus instillation.
0.1% sodium dodecyl sulphate procedure: Wash 2 times with 100 μl each. Retained the 3rd wash for 5 min and then gave one additional wash. Performed 3 times PBS wash prior to virus instillation.
0.1% Tween 20 procedure: Washed 2 times with 100 μl each. Retained the 3rd wash for 5 min and then gave one additional wash. Performed 3 times PBS wash prior to virus instillation.
0.1% Triton® X-100 procedure: Washed 2 times with 100 μl each. Retained the 3rd wash for 5 min and then gave one additional wash. Perform 3 times PBS wash prior to virus instillation.
0.1% Forlan C-24 procedure: Washed 2 times with 100 μl each. Retained the 3rd wash for 5 min and then gave one additional wash. Performed 3 times PBS wash prior to virus instillation.
0.1% decyl-b-D-maltoside procedure: Washed 2 times with 100 μl each. Retained the 3rd wash for 5 min and then gave one additional wash. Performed 3 times PBS wash prior to virus instillation.
0.1% 6-cyclohexylhexyl-b-D-maltoside procedure: Washed 2 times with 100 μl each. […]

For experiment [2], the system named is SD rat bladder epithelium. The experiment is described as follows: Adenovirus dose titration with SDS or DDM pretreatment. Type of experiment: in vivo, Sprague Dawley Rat. Conditions: 0.1% pretreatment. An excerpt:
All the animals had >90% in Ad-βgal gene expression in mice bladder. Adenovirus Dose Titration with Different Chemical Agents Pretreatment on SD Rat Bladder Epithelium • Species: Female Sprague Dawley Rat (Taconic Laboratory)—2/group • Study Design: To test the virus infectivity of rat bladder epithelium with different doses of Adenovirus following the pretreatment with SDS or DDM. This study also explored relationship between bladder volume and residual of SDS or DDM for adenovirus infectivity. • Dose/Route:
Rat bladders infected with 4×10^10 vp adenovirus achieved >90% Ad-βgal gene expression levels whereas rat bladders infected with 4×10^9 vp adenovirus had Ad-βgal gene expression levels range from 30% to 50%. […] Efficacy of Dodecyl-β-D-Maltoside as a Pretreatment Agent Prior to Adenovirus Infection of Mice Bladder Urothelium • Species: Female Balb/c Mouse (Taconic Laboratory)—2/group • Study Design: To test DDM from two different suppliers as pretreatment agents to enhance the adenovirus infection of mice bladder urothelium in a large group of animals. • Dose/Route: […]

For the molecule `CCCCCCCCCCCCO[C@@H]1O[C@H](CO)[C@@H](O[C@H]2O[C@H](CO)[C@@H](O)[C@H](O)[C@H]2O)[C@H](O)[C@H]1O` [n-dodecyl β-D-maltoside, n-dodecyl-β-D-maltoside], the “response class (level of transduction)” value in experiment [1] is “strongest response”. Besides, the “transduction of the urothelium” value in experiment [1] (0.02% pre-treatment for 5 minutes) is listed as 50-80%; in experiment [1] (0.05% pre-treatment for 5 minutes), more than 90%; in experiment [1] (0.2% pre-treatment for 5 minutes) it was more than 90%. In experiment [1] (bladder pretreatment followed by Ad-LacZ), the “effect on transduction (in words)” value is reported as “increased transduction significantly”. Moreover, the “removal of GAG layer of bladder epithelium” value in experiment [2] is given as “effective to remove GAG layer of bladder epithelium”.
